Measured values from US8759098B2, “Method for cloning pluripotent stem cells” (Boston Biomedical Research Institute, Inc., priority 2009, dated 2014).

Columns and labels:
Assay type in all cases: cell-based, mouse
[1] = test system: reprogramming genes (Oct4, Sox2, Klf4, Myc, Lin28) in Panstra-25 - Xn responsive; assay: Micro-array expression of reprogramming gene mRNAs, Panstra-25
Source text: (§1) Table 2. Micro-array expression levels for described iPSC reprogramming gene mRNAs in SACK-derived mouse pancreatic stem cell strains. […] Panstra-11 is a non-responsive strain.
(§2) All the described induced pluripotent stem cell (iPSC) reprogramming genes are detected in two cell strains derived with the suppression of asymmetric cell kinetics (SACK)-agent xanthine (Xn). The SACK strains were derived from pancreatic islets of adult xanthine phosphoribosyl transferase (XPRT)-transgenic mice. The derivation of such strains requires both the XPRT-transgenic genotype and Xn.

[2] = test system: reprogramming genes (Oct4, Sox2, Klf4, Myc, Lin28) in Panstra-11-Xn Non-responsive; assay: Micro-array expression of reprogramming gene mRNAs, Panstra-11
Source text: as §1, §2

[3] = test system: SACK-responsive, Pdx1-positive Panstra-25 pancreatic stem cells; assay: Gene-free iPSC reprogramming on STO feeders, colony phenotypes, Panstra-25; conditions: for Estimated gene-free iPSC colony formation efficiency, ES, AP+ (iPSC state) / Estimated gene-free iPSC colony formation efficiency, ES, AP− / Estimated gene-free iPSC colony formation efficiency, Fl, AP+ / Estimated gene-free iPSC colony formation efficiency, Fl, AP− / Phenotype ES, AP+ (iPSC state) of individual cell clones following expansion, clones/total / Phenotype ES, AP+ (iPSC state) of individual cell clones following expansion, percent / Phenotype ES, AP− of individual cell clones following expansion, clones/total / Phenotype ES, AP− of individual cell clones following expansion, percent / Phenotype Fl, AP+ of individual cell clones following expansion, clones/total / Phenotype Fl, AP+ of individual cell clones following expansion, percent / Phenotype Fl, AP− of individual cell clones following expansion, clones/total / Phenotype Fl, AP− of individual cell clones following expansion, percent: Panstra-25, 1 mM Xn
Procedure: Each tested SACK-derived cell strain was cultured on STO cell feeder monolayers in control medium with 10% DFBS, dialyzed fetal bovine serum (DFBS) or either of two commercial media for culture of murine embryonic stem cells (ESCs) and for the culture of reprogrammed cells such as iPSCs. Each medium condition was evaluated with or without supplementation with 1 mM xanthine (Xn). P/S denotes routine use of the antibiotics penicillin and streptomycin.
The method is an original pharmacological procedure for producing pluripotent stem cells. Cell strains derived in xanthine (Xn)-supplemented medium, by the method of suppression of asymmetric cell kinetics (SACK), were cultured in commercial media specified for the culture and/or production of pluripotent stem cells such as embryonic stem cells and iPSCs. Approximately 150,000 cells were plated on confluent STO cell feeders (i.e., mouse embryonic fibroblasts pre-treated with mitomycin C) in 10-cm culture dishes. In 2 weeks, iPSC-like cell colonies were detected.
To establish clonal strains, single colonies were picked, cultured in individual wells, and expanded for further study and cryo-preservation. A high fraction of the derived cell clones have morphological and biochemical properties indicative of iPSC cells.
Tissue-specific stem cells (e.g., Panstra-25 and Panstra-12 mouse pancreatic stem cell strains in the instant example) were cultured on mitomycin C-treated STO cell monolayers in commercial embryonic stem cell medium supplemented with the purine salvage base xanthine at 1 mM concentration (FIG. 4). Within 2-3 weeks of culture under otherwise standard conditions, cell colonies with embryonic stem cell-like morphology developed (FIG. 7B). These colonies were removed by mild trypsin treatment, transferred to individual cell culture wells prepared with STO cell feeders, and expanded in the respective embryonic stem cell culture medium supplemented with 1 mM xanthine (FIG. 5). The expanded cell clones expressed alkaline phosphatase (FIG. 8), a biochemical biomarker for the pluripotent phenotype of embryonic stem cells and iPSC cells. […] Xn supplementation increased the average production efficiency by as much as 3-fold (Table 6).

O=c1[nH]c(=O)c2[nH]cnc2[nH]1 [Xn, xanthine]
Klf4 expression (gene micro-array data) ([1]; Panstra-25, Xn): 31.8 | Lin28 expression (gene micro-array data) ([1]; Panstra-25, Xn): 1.0 | Myc expression (gene micro-array data) ([1]; Panstra-25, Xn): 35.5 | Oct4 expression (gene micro-array data) ([1]; Panstra-25, Xn): 2.3 | Sox2 expression (gene micro-array data) ([1]; Panstra-25, Xn): 0.2 | Klf4 and Myc mRNA expression in response to culture in Xn ([1]; SACK-derived strains, Table 2): increased mRNA expression | Klf4 expression (gene micro-array data) [2]: 21.6 | Lin28 expression (gene micro-array data) [2]: 0.9 | Myc expression (gene micro-array data) [2]: 19.6 | Oct4 expression (gene micro-array data) [2]: 2.6 | Sox2 expression (gene micro-array data) [2]: 0.1 | iPSC (gene-free iPSC reprogramming) ([3]; Panstra 25, SACK agent Xn): Yes | Estimated gene-free iPSC colony formation efficiency, ES, AP+ (iPSC state) ([3]; DFBS): 0.000% | Estimated gene-free iPSC colony formation efficiency, ES, AP− ([3]; DFBS): 0.000% | Estimated gene-free iPSC colony formation efficiency, Fl, AP+ ([3]; DFBS): 0.000% | Estimated gene-free iPSC colony formation efficiency, Fl, AP− ([3]; DFBS): 0.059% | Phenotype ES, AP+ (iPSC state) of individual cell clones following expansion, clones/total ([3]; DFBS): 0/22 | Phenotype ES, AP+ (iPSC state) of individual cell clones following expansion, percent ([3]; DFBS): 0% | Phenotype ES, AP− of individual cell clones following expansion, clones/total ([3]; DFBS): 0/22 | Phenotype ES, AP− of individual cell clones following expansion, percent ([3]; DFBS): 0% | Phenotype Fl, AP+ of individual cell clones following expansion, clones/total ([3]; DFBS): 0/22 | Phenotype Fl, AP+ of individual cell clones following expansion, percent ([3]; DFBS): 0% | Phenotype Fl, AP− of individual cell clones following expansion, clones/total ([3]; DFBS): 22/22 | Phenotype Fl, AP− of individual cell clones following expansion, percent ([3]; DFBS): 100% | Estimated gene-free iPSC colony formation efficiency, ES, AP+ (iPSC state) ([3]; KOSR): 0.016% | Estimated gene-free iPSC colony formation efficiency, ES, AP− ([3]; KOSR): 0.037% | Estimated gene-free iPSC colony formation efficiency, Fl, AP+ ([3]; KOSR): 0.000% | Estimated gene-free iPSC colony formation efficiency, Fl, AP− ([3]; KOSR): 0.000% | Phenotype ES, AP+ (iPSC state) of individual cell clones following expansion, clones/total ([3]; KOSR): 6/20 | Phenotype ES, AP+ (iPSC state) of individual cell clones following expansion, percent ([3]; KOSR): 30% | Phenotype ES, AP− of individual cell clones following expansion, clones/total ([3]; KOSR): 14/20 | Phenotype ES, AP− of individual cell clones following expansion, percent ([3]; KOSR): 70% | Phenotype Fl, AP+ of individual cell clones following expansion, clones/total ([3]; KOSR): 0/20 | Phenotype Fl, AP+ of individual cell clones following expansion, percent ([3]; KOSR): 0% | Phenotype Fl, AP− of individual cell clones following expansion, clones/total ([3]; KOSR): 0/20 | Phenotype Fl, AP− of individual cell clones following expansion, percent ([3]; KOSR): 0% | Estimated gene-free iPSC colony formation efficiency, ES, AP+ (iPSC state) ([3]; hiFBS): 0.008% | Estimated gene-free iPSC colony formation efficiency, ES, AP− ([3]; hiFBS): 0.027% | Estimated gene-free iPSC colony formation efficiency, Fl, AP+ ([3]; hiFBS): 0.003% | Estimated gene-free iPSC colony formation efficiency, Fl, AP− ([3]; hiFBS): 0.013% | Phenotype ES, AP+ (iPSC state) of individual cell clones following expansion, clones/total ([3]; hiFBS): 3/19 | Phenotype ES, AP+ (iPSC state) of individual cell clones following expansion, percent ([3]; hiFBS): 16% | Phenotype ES, AP− of individual cell clones following expansion, clones/total ([3]; hiFBS): 10/19 | Phenotype ES, AP− of individual cell clones following expansion, percent ([3]; hiFBS): 53% | Phenotype Fl, AP+ of individual cell clones following expansion, clones/total ([3]; hiFBS): 1/19 | Phenotype Fl, AP+ of individual cell clones following expansion, percent ([3]; hiFBS): 5% | Phenotype Fl, AP− of individual cell clones following expansion, clones/total ([3]; hiFBS): 5/19
